Series [1] has as its system Leishmania infantum (MHOM/MA (BE)/67) amastigotes. Put plainly: Curative efficacy against Leishmania infantum in the hamster model, oral 5 days. Type of series: in vivo. The following applies: for Bone marrow % red / Liver % red / Spleen % red: reduction vs VIC; for Bone marrow Mean ± SE of amastigotes per nucleus / Liver Mean ± SE of LDU / Spleen Mean ± SE of LDU: 10 days after last treatment. The method, then:
Golden hamsters (female, 75 g) were allocated randomly to 7 groups with 8 animals per group. • G1: vehicle infected control (VIC): 200 μl blank vehicle orally 5 days • G2: MIL-PBS: 5×40 mg/kg (=98.1 μmol/kg) orally for 5 days • G3: MIL-PBS: 5×20 mg/kg (=49.1 μmol/kg) orally for 5 days • G4: OlPC-PBS: 5×42.5 mg/kg (=98.1 μmol/kg) orally for 5 days • G5: OlPC-PBS: 5×21.2 mg/kg (=49.1 μmol/kg) orally for 5 days • G6: OlPC-liposomes: 5×2.4 ml/kg (=98.1 μmol/kg) orally for 5 days • G7: OlPC-liposomes: 5×1.2 ml/kg (=49.1 μmol/kg) orally for 5 days Drinking water and food were available ad libitum throughout the experiment. […] Artificial Infection
Leishmania infantum (MHOM/MA (BE)/67) amastigotes were obtained from the spleen of heavily infected donor hamsters. The total parasite burden was determined on Giemsa-stained smears. Amastigotes in the spleen homogenate were concentrated using two centrifugation steps (low speed (300 rpm) with collection of the supernatant−high speed (4200 rpm) with collection of the pellet). The parasite burdens in the spleen were estimated using the Stauber technique and the amastigote suspension was diluted to prepare the infection inocula for intracardial infection containing 2×10^7 amastigotes/100 μl. At 21 days post infection (=start of treatment), the levels infection were checked in 4 randomly chosen animals by making a smear from a liver biopsy for determination of the parasite burden (cfr. infra).
• Miltefosine was formulated at 20 mg/ml and 10 mg/ml in PBS and stored at room temperature in the dark. A clear transparent solution was obtained. • OlPC-PBS was formulated at 21.25 mg/ml and 10.63 mg/ml in PBS and stored at room temperature in the dark. A clear transparent solution was obtained. • OlPC-liposome formulation was prepared at 18 mg/ml (dosed at 2.4 ml/kg=120 μl/50 gram). The formulation was diluted 2 times in PBS to obtain a OlPC-formulation of 9 mg/ml (dosed at 1.2 ml/kg=[…])) Treatment
Oral treatment started 21 days after infection (dpi) and was continued for 5 consecutive days. Dosing volume was 100 μl per 50 gram BW (bodyweight).
Parasite Burden: amastigote burdens in the different target organs (liver, spleen, bone-marrow) were determined 10 days after the last treatment (i.e. day 35 of the experiment). The organs of individual animals were weighed (except bone-marrow); impression smears were fixed in methanol and stained with Giemsa for microscopic evaluation of the number of amastigotes per cell by counting a minimum of 500 nuclei1. The results are expressed as Leishman Donovan Units (LDU)=mean number of amastigotes per nucleus×mg organ weight. Percentage reduction as compared to vehicle-treated infected control animals (VIC) is used as a measure for drug activity. Particularly for spleen and bone-marrow, the viability of possible residual burdens was assessed using the promastigote transformation assay.

The test system is the same in series [2]. Nature of the series: Follow up experiment: single versus multiple oral administrations in L. infantum infected hamsters. The series is classed as in vivo. The following applies: hamster, total doses 25, 50 and 100 mg/kg oral, liver, spleen, bone marrow. As to the method:
(§1) In a follow up experiment, the same experimental protocol was used to compare the efficacy of oral oleyl phosphocholine (OlPC) at total doses of 25, 50 and 100 mg/kg when given as single or multiple oral administrations (5×5, 10 and 20 mg/kg, respectively).
(§2) Female hamsters (n=60) were intracardially infected with 2×10^7 Leishmania infantum (MHOM/MA (BE)/67) amastigotes on day 0. Treatment started at day+21 post infection for 5 consecutive days once daily with a total dose of […] given as single or multiple oral administrations. Amastigote burdens in the different target organs (liver, spleen, bone-marrow) were determined 10 days after the last treatment (day+35). The organs of individual animals were weighed (except bone-marrow); impression smears were fixed in methanol and stained with Giemsa for microscopic evaluation of the number of amastigotes per cell by counting a minimum of 500 nuclei. The results (FIG. 4) are expressed as Leishman Donovan Units (LDU)=mean number of amastigotes per nucleus×mg organ weight.

Series [3] is described as follows: Tolerability in hamsters, follow up experiment. Type of series: in vivo. The following applies: hamster, oral, single administrations as high as 100 mg/kg. As to the method:
as §1, §2

Series [4] can be described thus: Water solubility of OlPC. The series is classed as physicochemical. As to the method:
The wet granulation process for OlPC solid dosage formulation requires that OlPC is solubilised in water. OlPC as a water solubility of 0.2 g/ml, which implies that for each tablet with 50 mg of OlPC at least 250 μl of water per tablet has to be incorporated in the dry powder mixture.

For series [5], the system named is L. infantum. Put plainly: Treatment of dogs naturally infected with L. infantum, clinical score. Conditions: 4 mg/kg/day orally 14 days. The series is classed as in vivo. The method, then: (§3) The dose of 4 mg/kg/day oleylphosphocholine was used to treat orally during 14 days a cohort of 6 dogs from a shelter naturally infected with L. infantum and classified as clinically sick. The dogs were assessed at the clinical (physical examination and clinic-pathological abnormalities) and parasitological levels at the beginning of the treatment (day 0) and on day 15, 30 and 90.

The nature of series [6]: Dynamic vapor sorption, OlPC hygroscopicity. The following applies: 25° C. Type of series: physicochemical. As to the method: Active pharmaceutical ingredients (API) frequently show a propensity to interact with water molecules, leading to absorption of moisture in their bulk structure or adsorption on their surfaces. Such behaviour can critically affect many pharmaceutical properties such as purity, solubility and chemical stability, density, surface area, powder flow, compact ability and crystal form. […] Dynamic vapor sorption (DVS) analyzes determine hygroscopicity profiles using a very small sample (≈15 mg), and provide both qualitative and quantitative information on water uptake.
Water sorption/desorption isotherm of OlPC was determined gravimetrically at 25° C. (SD, 0.1° C.) using a DVS Advantage 1 with a Cahn D200 microbalance (Surface Measurement Systems, London, UK). Between 10 and 20 mg was weighed in the sample cup of the instrument, subjected to a drying step in order to bring the sample to a constant weight and subsequently exposed to increasing relative humidity (RH) (using 10% increments up to 90%). Following the sorption phase, the sample was exposed to a decreasing RH (in steps of 10% until 0% RH). Each step continued until equilibrium was reached (i.e. when the change in mass smaller than 0.002% per minute during at least 10 min) or until 6 h had passed. The mass change was recorded every minute with a resolution of ±0.1 μg.

Series [7] is described as follows: Thermogravimetric analysis (TGA) of OlPC. Type of series: physicochemical. The following applies: with 1% of mass loss, heating rate 10° C./min. As to the method: Thermogravimetric Analysis (TGA) measures weight changes in a material as a function of temperature (or time) under a controlled atmosphere. Its principal use includes measurement of a material's thermal stability and composition. The TGA analysis was performed using a HR TGA 2950 (TA Instruments, Leatherhead, UK). Samples (±15 mg) were equilibrated at 50° C. and then heated to 500° C. at a heating rate of 10° C./min and the percentage of weight loss was recorded. The OlPC compound show thermal degradation at 159.27° C. with 1% of mass loss.

Series [8] is described as follows: Compatibility of OlPC with binder in solution. The series is classed as physicochemical. An excerpt: The tablets produced presented high levels of friability and high disintegration time. It was observed that the presence of polyvynilpyrrolidone in solution with OlPC induces the formation of an unknown precipitated which indicates the presence of an incompatibility between the two compounds.
Hydroxypropylmethylcellulose was then selected to replace polyvynilpyrrolidone as a binder in the subsequent formulation assays.

Series [9] in a line: Tolerance in treated naturally infected dogs. Type of series: in vivo. Conditions: 6 dogs, 4 mg/kg/day orally 14 days. The method, then: as §3
Where [10] appears, read: 49.1 μmol/kg (20 mg/kg) orally for 5 days.
Setting [11] is: 98.1 μmol/kg (40 mg/kg) orally for 5 days.

Values after ≈ are worked out from the molar mass of the structure shown.

Turning to `CCCCCCCCCCCCCCCCOP(=O)([O-])OCC[N+](C)(C)C` [Miltefosine], the “Bone marrow % red” value in series [1] (setting [10]) was determined as 39%; in series [1] (setting [11]), 95%. Moreover, the Liver % red in series [1] (setting [10]) is recorded as 0%; in series [1] (49.1 μmol/kg (20 mg/kg) orally for 5 days, listed as MIL), “no reduction”; in series [1] (setting [11]), 65%. Moreover, the Spleen % red turned out to be 61% in series [1] (setting [10]); 99.2% in series [1] (setting [11]); 99% in series [1] (98.1 μmol/kg (40 mg/kg) orally for 5 days, listed as MIL). Moreover, the results for the “Bone marrow Mean ± SE of amastigotes per nucleus” value in series [1] (49.1 μmol/kg orally for 5 days) and in series [1] (98.1 μmol/kg orally for 5 days) were 1.0 ± 0.34 amastigotes per nucleus and 0.1 ± 0.014 amastigotes per nucleus, respectively. Moreover, the “Liver Mean ± SE of LDU” value in series [1] (49.1 μmol/kg orally for 5 days) amounted to 9017 ± 1489 LDU; in series [1] (98.1 μmol/kg orally for 5 days) it was 2764 ± 847 LDU. For the same molecule, the “Spleen Mean ± SE of LDU” value is 188 ± 44 LDU in series [1] (49.1 μmol/kg orally for 5 days) and 3.7 ± 1.67 LDU in [1] (98.1 μmol/kg orally for 5 days).
For the molecule `CCCCCCCC/C=C\CCCCCCCCOP(=O)([O-])OCC[N+](C)(C)C` [OlPC, oleyl phosphocholine], the “overall parasite suppression levels, single versus multiple administrations” value in series [2] is given as “similar”. For the same molecule, in series [3], the “tolerability / signs of toxicity” value was “well tolerated”. Further, the water solubility in series [4] was 200 mg/mL (≈ 461 mM). Moreover, the “average clinical score (CS)” value in series [5] (day 15 (day 0: 19, range 14-31)) was 12 (range 7-16); in series [5] (day 30 (day 0: 19, range 14-31)) it was 5 (range 1-10); in series [5] (day 90 (range 0-5; day 0: 19)) it was 2. Moreover, in series [6] (exposed to 90% RH), the water absorbed turned out to be 41.67%. Also, the hygroscopicity entry in series [6] (water sorption and desorption profiles) is on record as “very hygroscopic”. The molecule also showed a thermal degradation temperature in [7] of 159.27 °C. Further, the compatibility with hydroxypropylmethylcellulose result in [8] was “no such incompatibility was observed”. The “compatibility with polyvinylpyrrolidone in solution” value in [8] (unknown precipitate formed) is “incompatibility”. The “tolerance, side effects” value in series [9] was “two of the six dogs treated experienced diarrhea during the first week post-treatment, and a third one had diarrhea and 1 episode of vomiting”.

The values are drawn from patent US9358244B2, “Solid dosage forms of oleyl phosphocholine” (Oblita Therapeutics BVBA, priority 2010, dated 2016).
